US20130072899A1, “Pharmaceutical Formulations for Iontophoretic Delivery of Gallium” (Nitric BloTherapeutics, Inc., priority 2008, published 2013)
Read-outs that look alike come from different tables or passages of the source.

Key:
[1] = Infinite dose mass balance study, gallium recovery from human skin; details: for Ga mass detected per skin surface area: nitrate hydrate
Description: An infinite dose mass balance study was performed using full thickness human skin. Small Franz cells were set up as previously described and the mass and thickness of skin section recorded. […] Cells were then treated with either […] iontophoresis or received no iontophoresis (n=6 for each). […] The skin samples were removed and reweighed.
(Cells dismantled after 0 and 60 h post iontophoresis).

[2] = for specific binding affinity of human full thickness skin for gallium (mean): mean of samples A-E, nitrate hydrate
Description: Ten minutes of 400 μA iontophoresis was applied to all of the cells and 0.5 mL samples were removed after 0, 24, 28, 42, 65 and 70 h and replaced with receiver fluid. […] Samples of 0.5 mL were removed for LC ion-exchange assay after 0, 24, 28, 42, 52 and 70 h and replaced with receiver fluid. […] The skin samples were then finely sliced using scissors, chilled and homogenised for five minutes using a T10 Ultra-Turax homogeniser (IKA works, Staufen, Germany) using 30 second pulses. The scalpel, scissors, forceps and homogeniser blades were washed through using 10 mL of PDCA mobile phase concentrate as the extractant. […] The skin-PDCA concentrate homogenate was allowed to mix for a further 24 h before being filtered using 0.45 μm, 30 mm cellulose acetate syringe filters (Orange Scientific, Braine l'Alleud, Belgium).

[3] = Ionto (400 μA, 60 min) 0 h, 1.5% w/v
[4] = Ionto (400 μA, 60 min) 60 h, 1.5% w/v
[5] = Sample D, Ga delivered 0.395 mg
[6] = Sample E, Ga delivered 0.1975 mg

## O=[N+]([O-])[O-].O=[N+]([O-])[O-].O=[N+]([O-])[O-].[Ga+3] [gallium nitrate, Gallium (III) nitrate hydrate]
[1]; [3]
  Ga mass detected, full thickness human skin: 0.0788 ± 0.043 mg
  Ga mass detected, skin corrected for binding: 0.127 ± 0.043 mg
  Ga mass detected per skin surface area: 0.200±0.069 mg/cm^2
[1]; Ionto (400 μA, 60 min) 0 h, 1.5% w/v, listed as Ga
  Ga mass detected per skin surface area: 0.200 ± 0.069 mg/cm^2
[1]; [4]
  Ga mass detected, full thickness human skin: 0.328 ± 0.371 mg
  Ga mass detected, skin corrected for binding: 0.391 ± 0.373 mg
  Ga mass detected per skin surface area: 0.617±0.059 mg/cm^2
[1]; Ionto (400 μA, 60 min) 60 h, 1.5% w/v, listed as Ga
  Ga mass detected per skin surface area: 0.617 ± 0.059 mg/cm^2
[1]; Passive 0 h, 1.5% w/v
  Ga mass detected, full thickness human skin: 0.07 ± 0.036 mg
  Ga mass detected, skin corrected for binding: 0.111 ± 0.035 mg
  Ga mass detected per skin surface area: 0.178±0.058 mg/cm^2
[1]; Passive 0 h, 1.5% w/v, listed as Ga
  Ga mass detected per skin surface area: 0.178 ± 0.058 mg/cm^2
[1]; Passive 60 h, 1.5% w/v
  Ga mass detected, full thickness human skin: 0.0745 ± 0.108 mg
  Ga mass detected, skin corrected for binding: 0.137 ± 0.109 mg
  Ga mass detected per skin surface area: 0.221±0.176 mg/cm^2
[1]; Passive 60 h, 1.5% w/v, listed as Ga
  Ga mass detected per skin surface area: 0.221 ± 0.176 mg/cm^2
[1]; after 60 hours, 1.5% w/v
  increase in skin gallium content, iontophoretic vs passive: three fold
[1]; both passive and iontophoretic cells
  total gallium in the skin vs levels in the receiver compartment: ten-fold higher
[1]; immediately after iontophoresis
  increase in detected gallium level in the skin, iontophoresis vs passive: 12%
[1]; receiver compartment and recovery from the skin
  increase in gallium flux with 60 min iontophoresis compared to passive: approximate three-fold increase
[2]; Sample A, Ga delivered 2.4 mg
  % Ga recovery: 97.1%
  Binding: 0.138 mg/g
  Ga bound to skin: 0.07 mg
  Ga recovered: 2.33 mg
[2]; Sample B, Ga delivered 1.6 mg
  % Ga recovery: 92.5%
  Binding: 0.178 mg/g
  Ga bound to skin: 0.12 mg
  Ga recovered: 1.48 mg
[2]; Sample C, Ga delivered 0.79 mg
  % Ga recovery: 87.3%
  Binding: 0.193 mg/g
  Ga bound to skin: 0.1 mg
  Ga recovered: 0.69 mg
[2]; [5]
  % Ga recovery: 73.4%
  Binding: 0.197 mg/g
  Ga bound to skin: 0.105 mg
  Ga recovered: 0.29 mg
[2]; [6]
  % Ga recovery: 60.8%
  Binding: 0.151 mg/g
  Ga bound to skin: 0.0775 mg
  Ga recovered: 0.12 mg
[2]; listed as Ga
  specific binding affinity of human full thickness skin for gallium (mean): 0.171 mg/g
[2]
  specific binding affinity of human full thickness skin for gallium (mean): 0.17 ± 0.03 mg/g
